Laboratory results taken from the supplement of paper PMC10627819.

How the values were obtained:
B. subtilis 168 [1] = experiment: fitness (endpoint OD595 vs no drug) (fraction); higher = more growth
How it was run: (§1)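 Plates with 384 wells were inoculated at OD595 0.01 using 30 µl of TSB, LB Lennox or CY, or 55 µl for S. pneumoniae. Incubation was at 37 °C, with OD595 measured every 30 min for 14 h. Fitness is the stationary-phase transition optical density over the robust mean of no-drug control wells, after first-reading background subtraction; it is capped at 1.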

S. aureus DSM 20231 [2] = experiment: as above
How it was run: as §1

S. pneumoniae D39V [3] = experiment: as above
How it was run: as §1

B. subtilis 168 [4] = experiment: Bliss interaction score (quartile over a dose matrix) (fitness difference); higher = more antagonism (negative = synergy)
How it was run: (§2)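 Growth was read as OD595 when cultures entered stationary phase, and each value was divided by the plate's robust no-drug mean and capped at 1. This normalised ratio is the fitness value, and fitness for each single drug came from the combination data. The Bliss score subtracts the expected fitness, taken as the product, from the observed fitness and is given as quartiles across technical, biological and donor/recipient replicates.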

S. aureus DSM 20231 [5] = experiment: as above
How it was run: as §2

S. aureus Newman = experiment: as above
How it was run: as §2

S. pneumoniae D39V [6] = experiment: as above
How it was run: as §2
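Throughout, for Bliss interaction score (quartile over a dose matrix): first quartile when negative (synergy) and third quartile when positive (antagonism).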

CCC[C@@H]1C[C@@H](C(=O)N[C@@H]([C@H]2O[C@H](SC)[C@H](O)[C@@H](O)[C@H]2O)[C@@H](C)O)N(C)C1 [Lincomycin] + COc1c(N2C[C@@H]3CCCN[C@@H]3C2)c(F)cc2c(=O)c(C(=O)O)cn(C3CC3)c12 [Moxifloxacin]
fitness, one replicate
Conditions | first compound 0.1 µg/mL | first compound 0.2 µg/mL | first compound 0.4 µg/mL
B. subtilis 168 [1], partner 0.0312 µg/mL | 0.0564 | 0.039 | –
B. subtilis 168 [1], partner 0.0625 µg/mL | 0.0916 | 0.06 | –
B. subtilis 168 [1], partner 0.125 µg/mL | 0.0846 | 0.0751 | –
S. aureus DSM 20231 [2], partner 0.06 µg/mL | 0.661 | 0.677 | 0.562
S. aureus DSM 20231 [2], partner 0.12 µg/mL | 0.498 | 0.527 | 0.448

Conditions | fitness
B. subtilis 168 [1], first compound 0.1 µg/mL, partner 2 µg/mL | 0.0333
B. subtilis 168 [1], first compound 0.1 µg/mL, partner 4 µg/mL | 0.0228
B. subtilis 168 [1], first compound 0.1 µg/mL, partner 8 µg/mL | 0.0229
B. subtilis 168 [1], first compound 0.2 µg/mL, partner 2 µg/mL | 0.0297
B. subtilis 168 [1], first compound 0.2 µg/mL, partner 4 µg/mL | 0.0322
B. subtilis 168 [1], first compound 0.2 µg/mL, partner 8 µg/mL | 0.0239
B. subtilis 168 [1], first compound 0.4 µg/mL, partner 0.0312 µg/mL | 0.0344
B. subtilis 168 [1], first compound 0.4 µg/mL, partner 0.0625 µg/mL | 0.036
B. subtilis 168 [1], first compound 0.4 µg/mL, partner 0.125 µg/mL | 0.0478
B. subtilis 168 [1], first compound 0.4 µg/mL, partner 2 µg/mL | 0.0261
B. subtilis 168 [1], first compound 0.4 µg/mL, partner 4 µg/mL | 0.0257
B. subtilis 168 [1], first compound 0.4 µg/mL, partner 8 µg/mL | 0.0306
B. subtilis 168 [1], first compound 0.8 µg/mL, partner 0.0312 µg/mL | 0.0429
B. subtilis 168 [1], first compound 0.8 µg/mL, partner 0.0625 µg/mL | 0.049
B. subtilis 168 [1], first compound 0.8 µg/mL, partner 0.125 µg/mL | 0.0451
B. subtilis 168 [1], first compound 1.6 µg/mL, partner 0.0312 µg/mL | 0.0535
B. subtilis 168 [1], first compound 1.6 µg/mL, partner 0.0625 µg/mL | 0.0507
B. subtilis 168 [1], first compound 1.6 µg/mL, partner 0.125 µg/mL | 0.0559
S. aureus DSM 20231 [2], first compound 0.1 µg/mL, partner 0.0075 µg/mL | 0.823
S. aureus DSM 20231 [2], first compound 0.1 µg/mL, partner 0.015 µg/mL | 0.765
S. aureus DSM 20231 [2], first compound 0.1 µg/mL, partner 0.03 µg/mL | 0.671
S. aureus DSM 20231 [2], first compound 0.2 µg/mL, partner 0.0075 µg/mL | 0.737
S. aureus DSM 20231 [2], first compound 0.2 µg/mL, partner 0.015 µg/mL | 0.715
S. aureus DSM 20231 [2], first compound 0.2 µg/mL, partner 0.03 µg/mL | 0.689
S. aureus DSM 20231 [2], first compound 0.4 µg/mL, partner 0.0075 µg/mL | 0.301
S. aureus DSM 20231 [2], first compound 0.4 µg/mL, partner 0.015 µg/mL | 0.278
S. aureus DSM 20231 [2], first compound 0.4 µg/mL, partner 0.03 µg/mL | 0.359
S. pneumoniae D39V [3], first compound 0.2 µg/mL, partner 0.005 µg/mL | 0.749
S. pneumoniae D39V [3], first compound 0.2 µg/mL, partner 0.01 µg/mL | 0.829
S. pneumoniae D39V [3], first compound 0.2 µg/mL, partner 0.02 µg/mL | 0.757
S. pneumoniae D39V [3], first compound 0.215 µg/mL, partner 0.0037 µg/mL | 0.742
S. pneumoniae D39V [3], first compound 0.215 µg/mL, partner 0.0075 µg/mL | 0.769
S. pneumoniae D39V [3], first compound 0.215 µg/mL, partner 0.015 µg/mL | 0.751
S. pneumoniae D39V [3], first compound 0.4 µg/mL, partner 0.005 µg/mL | 0.675
S. pneumoniae D39V [3], first compound 0.4 µg/mL, partner 0.01 µg/mL | 0.704
S. pneumoniae D39V [3], first compound 0.4 µg/mL, partner 0.02 µg/mL | 0.653
S. pneumoniae D39V [3], first compound 0.43 µg/mL, partner 0.0037 µg/mL | 0.629
S. pneumoniae D39V [3], first compound 0.43 µg/mL, partner 0.0075 µg/mL | 0.651
S. pneumoniae D39V [3], first compound 0.43 µg/mL, partner 0.015 µg/mL | 0.677
S. pneumoniae D39V [3], first compound 0.86 µg/mL, partner 0.0037 µg/mL | 0.34
S. pneumoniae D39V [3], first compound 0.86 µg/mL, partner 0.0075 µg/mL | 0.339
S. pneumoniae D39V [3], first compound 0.86 µg/mL, partner 0.015 µg/mL | 0.297

Conditions | Bliss interaction score
B. subtilis 168 [4] | -0.0143
S. aureus DSM 20231 [5] | 0.124
S. aureus Newman | 0.0565
S. pneumoniae D39V [6] | 0.0862

CCC[C@@H]1C[C@@H](C(=O)N[C@@H]([C@H]2O[C@H](SC)[C@H](O)[C@@H](O)[C@H]2O)[C@@H](C)O)N(C)C1 [Lincomycin] + CN1C2=CC=CC=C2N=C3C1=CC=CC3=O [Pyocyanin]
Conditions | fitness
B. subtilis 168 [1], first compound 0.1 µg/mL, partner 1.25 µg/mL | 0.899
B. subtilis 168 [1], first compound 0.1 µg/mL, partner 2.5 µg/mL | 0.823
B. subtilis 168 [1], first compound 0.1 µg/mL, partner 5 µg/mL | 0.694
B. subtilis 168 [1], first compound 0.2 µg/mL, partner 1.25 µg/mL | 0.862
B. subtilis 168 [1], first compound 0.2 µg/mL, partner 2.5 µg/mL | 0.8
B. subtilis 168 [1], first compound 0.2 µg/mL, partner 5 µg/mL | 0.668
B. subtilis 168 [1], first compound 0.4 µg/mL, partner 1.25 µg/mL | 0.827
B. subtilis 168 [1], first compound 0.4 µg/mL, partner 2.5 µg/mL | 0.792
B. subtilis 168 [1], first compound 0.4 µg/mL, partner 5 µg/mL | 0.66
S. aureus DSM 20231 [2], first compound 0.1 µg/mL, partner 1.25 µg/mL | 0.794
S. aureus DSM 20231 [2], first compound 0.1 µg/mL, partner 2.5 µg/mL | 0.883
S. aureus DSM 20231 [2], first compound 0.1 µg/mL, partner 5 µg/mL | 0.555
S. aureus DSM 20231 [2], first compound 0.2 µg/mL, partner 1.25 µg/mL | 0.661
S. aureus DSM 20231 [2], first compound 0.2 µg/mL, partner 2.5 µg/mL | 0.613
S. aureus DSM 20231 [2], first compound 0.2 µg/mL, partner 5 µg/mL | 0.329
S. aureus DSM 20231 [2], first compound 0.4 µg/mL, partner 2.5 µg/mL | 0.195
S. aureus DSM 20231 [2], first compound 0.4 µg/mL, partner 5 µg/mL | 0.0887
S. pneumoniae D39V [3], first compound 0.215 µg/mL, partner 0.325 µg/mL | 0.877
S. pneumoniae D39V [3], first compound 0.215 µg/mL, partner 0.65 µg/mL | 0.855
S. pneumoniae D39V [3], first compound 0.215 µg/mL, partner 1.3 µg/mL | 0.741
S. pneumoniae D39V [3], first compound 0.43 µg/mL, partner 0.325 µg/mL | 0.575
S. pneumoniae D39V [3], first compound 0.43 µg/mL, partner 0.65 µg/mL | 0.794
S. pneumoniae D39V [3], first compound 0.43 µg/mL, partner 1.3 µg/mL | 0.665
S. pneumoniae D39V [3], first compound 0.86 µg/mL, partner 0.325 µg/mL | 0.535
S. pneumoniae D39V [3], first compound 0.86 µg/mL, partner 0.65 µg/mL | 0.489
S. pneumoniae D39V [3], first compound 0.86 µg/mL, partner 1.3 µg/mL | 0.329

fitness, S. pneumoniae D39V [3], one replicate
Conditions | first compound 0.2 µg/mL | first compound 0.4 µg/mL | first compound 0.8 µg/mL
partner 0.325 µg/mL | 0.818 | 0.7 | 0.661
partner 0.65 µg/mL | 0.855 | 0.747 | 0.69

Conditions | Bliss interaction score
B. subtilis 168 [4] | 0.0751
S. aureus DSM 20231 [5] | -0.1
S. aureus Newman | -0.229
S. pneumoniae D39V [6] | 0.113
